Test results reported in patent publication US20100022509A1, “Inhibitors of MshC and Homologs Thereof, and Methods of Identifying Same” (priority 2006, published 2010).
Where two headings read alike, the source gives them in different places.

Assays:
Type in all cases: biochemical, M. tuberculosis
MshC [1] = molecular target: T1, MshC (Mycobacterium tuberculosis, UniProt P9WJM9); assay: biochemical
T1 sequence (P9WJM9 1-414): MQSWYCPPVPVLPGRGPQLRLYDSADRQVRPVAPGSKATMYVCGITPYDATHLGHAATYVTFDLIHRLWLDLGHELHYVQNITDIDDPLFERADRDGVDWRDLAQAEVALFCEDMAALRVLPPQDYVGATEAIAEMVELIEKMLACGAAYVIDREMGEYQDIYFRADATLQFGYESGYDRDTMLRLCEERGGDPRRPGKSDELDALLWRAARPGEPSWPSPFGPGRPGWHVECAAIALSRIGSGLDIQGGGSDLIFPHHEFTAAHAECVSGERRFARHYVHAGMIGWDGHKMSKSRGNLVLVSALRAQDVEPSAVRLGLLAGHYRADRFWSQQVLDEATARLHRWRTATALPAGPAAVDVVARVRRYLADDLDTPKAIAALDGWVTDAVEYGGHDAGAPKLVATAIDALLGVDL

MshC [2] = molecular target: T1, MshC; assay: Inhibition studies of MshC ligase activity (HEPES pH 7.5, HPLC); settings: for % inhibition: 50 μM GlcN-Ins and 70 μM Cys
MshC [3] = molecular target: T1, MshC; settings: for activity as alternative substrate to Cys, in words: 80 μM to 1.6 mM
[4] = 80-1600 μM, 70 μM L-Cys and 50 μM GlcN-Ins

SMILES: O=C(NCCCN1CCOCC1)c1ccc2c(c1)N(Cc1cccc(Cl)c1)C(=O)c1ccccc1S2 [Inhibitor 1937]
- inhibition of MshC in words, 1,3-diaminopropyl residue with remote amino residue capable of protonation (MshC [1]): measurable inhibition
- inhibition of MshC in words, Z is a benzyl moiety bearing one or more halogens (MshC [1]): Measurable inhibition
- IC50 (MshC [1]; IC50, μM): 780 ± 120 µM
- inhibition of MshC in words, compounds grouped by X (MshC [1]; X=S, X=SO, X=SO2): Significant inhibition

SMILES: CN(CCCNC(=O)c1ccc2c(c1)N(Cc1cccc(Cl)c1)C(=O)c1ccccc1[S+]2[O-])C1CCCCC1 (stereo not drawn) [Inhibitor 1938]
- inhibition of MshC in words, 1,3-diaminopropyl residue with remote amino residue capable of protonation (MshC [1]): measurable inhibition
- inhibition of MshC in words, Z is a benzyl moiety bearing one or more halogens (MshC [1]): Measurable inhibition
- IC50 (MshC [1]; IC50, μM): 102 ± 4 µM
- inhibition of MshC in words, compounds grouped by X (MshC [1]; X=S, X=SO, X=SO2): Significant inhibition

SMILES: CCOCCCNC(=O)c1ccc2c(c1)N(Cc1cccc(Cl)c1)C(=O)c1ccccc1[S+]2[O-] (stereo not drawn) [Inhibitor 1939]
- inhibition of MshC in words, compounds lacking the basic amino group or with groups in excess of 10 carbons on the remote amino residue (MshC [1]): little or no inhibition
- IC50 (MshC [1]; IC50, μM): 3200 ± 1000 µM

SMILES: CCCCN(CCCNC(=O)c1ccc2c(c1)N(Cc1cccc(Cl)c1)C(=O)c1ccccc1[S+]2[O-])Cc1ccccc1 (stereo not drawn) [Inhibitor 1940]
- inhibition of MshC in words, compounds lacking the basic amino group or with groups in excess of 10 carbons on the remote amino residue (MshC [1]): little or no inhibition
- IC50 (MshC [1]; IC50, μM): > 3000 µM

SMILES: CN(CCc1ccccc1)C(=O)c1ccc2c(c1)N(Cc1cccc(Cl)c1)C(=O)c1ccccc1S2(=O)=O [Inhibitor 1943]
- IC50 (MshC [1]; IC50, μM): > 3000 µM

SMILES: O=C(NCC1CCCN1)c1ccc2c(c1)N(Cc1cccc(Cl)c1)C(=O)c1ccccc1S2(=O)=O (stereo not drawn) [Inhibitor 1947]
- inhibition of MshC in words, Z is a benzyl moiety bearing one or more halogens (MshC [1]): Measurable inhibition
- inhibition of MshC in words, compounds grouped by X (MshC [1]): Significant inhibition
- IC50 (MshC [1]; IC50, μM): 2300 ± 300 µM

SMILES: O=C(NCCCN1CCC(Cc2ccccc2)CC1)c1ccc2c(c1)N(Cc1cccc(Cl)c1)C(=O)c1ccccc1S2(=O)=O [Inhibitor 1949]
- inhibition of MshC in words, compounds lacking the basic amino group or with groups in excess of 10 carbons on the remote amino residue (MshC [1]): little or no inhibition
- IC50 (MshC [1]; IC50, μM): > 3000 µM

SMILES: CCC1CCCCN1CCCNC(=O)c1ccc2c(c1)N(Cc1cccc(Cl)c1)C(=O)c1ccccc1S2(=O)=O (stereo not drawn) [Inhibitor 1954]
- inhibition of MshC in words, 1,3-diaminopropyl residue with remote amino residue capable of protonation (MshC [1]): measurable inhibition
- inhibition of MshC in words, Z is a benzyl moiety bearing one or more halogens (MshC [1]): Measurable inhibition
- IC50 (MshC [1]; IC50, μM): 1100 ± 200 µM
- inhibition of MshC in words, compounds grouped by X (MshC [1]; X=S, X=SO, X=SO2): Significant inhibition

SMILES: O=C(NCCCSC1CCCCC1)c1ccc2c(c1)N(Cc1cccc(Cl)c1)C(=O)c1ccccc1S2(=O)=O [Inhibitor 1964]
- inhibition of MshC in words, compounds lacking the basic amino group or with groups in excess of 10 carbons on the remote amino residue (MshC [1]): little or no inhibition
- IC50 (MshC [1]; IC50, μM): > 3000 µM

SMILES: CCCCN(C)CCCNC(=O)c1ccc2c(c1)N(Cc1cccc(Cl)c1)C(=O)c1ccccc1S2(=O)=O [Inhibitor 1965]
- inhibition of MshC in words, 1,3-diaminopropyl residue with remote amino residue capable of protonation (MshC [1]): measurable inhibition
- inhibition of MshC in words, Z is a benzyl moiety bearing one or more halogens (MshC [1]): Measurable inhibition
- IC50 (MshC [1]; IC50, μM): 1700 ± 300 µM
- inhibition of MshC in words, compounds grouped by X (MshC [1]; X=S, X=SO, X=SO2): Significant inhibition

SMILES: CCN(C(=O)c1ccc2c(c1)N(Cc1cccc(Cl)c1)C(=O)c1ccccc1S2(=O)=O)c1ccccc1 [Inhibitor 1966]
- IC50 (MshC [1]; IC50, μM): > 3000 µM

SMILES: COC(=O)c1cc2c(cc1NC(=O)c1ccc3c(c1)N(Cc1cccc(Cl)c1)C(=O)c1ccccc1[S+]3[O-])OCCO2 (stereo not drawn) [Inhibitor 1984]
- IC50 (MshC [1]; IC50, μM): > 3000 µM

SMILES: COC(=O)c1cc(NC(=O)c2ccc3c(c2)N(Cc2cccc(Cl)c2)C(=O)c2ccccc2[S+]3[O-])cc(C(=O)OC)c1 (stereo not drawn) [Inhibitor 1986]
- IC50 (MshC [1]; IC50, μM): > 3000 µM

SMILES: C[C@H](N)C(=O)O [L-alanine]
- inhibition of the ligase activity, in words (MshC [2]; [4]): very minor inhibition
- % inhibition (MshC [2]; [inhibitor] 5000 μM): 4 ± 8%
- relative spec. act. (MshC [3]): ≦0.016
- activity as alternative substrate to Cys, in words (MshC [3]): Nor was significant activity detected

SMILES: N[C@@H](CCS)C(=O)O [L-homocysteine]
- inhibition of the ligase activity, in words (MshC [2]; [4]): very minor inhibition
- % inhibition (MshC [2]; [inhibitor] 1600 μM): 0 ± 5%
- relative spec. act. (MshC [3]): ≦0.2
- activity as alternative substrate to Cys, in words (MshC [3]): Nor was significant activity detected

SMILES: CC[C@H](N)C(=O)O [L-α-aminobutyric acid]
- inhibition of the ligase activity, in words (MshC [2]; [4]): very minor inhibition

SMILES: CC(=O)N[C@@H](CS)C(=O)N[C@H]1[C@@H](OC2[C@H](O)[C@H](O)C(O)[C@H](O)[C@H]2O)O[C@H](CO)[C@@H](O)[C@@H]1O (stereo partly drawn) [MSH, 1-D-myo-inosityl 2-(N-acetyl-L-cysteinyl)amido-2-deoxy-α-D-glucopyranoside]
- inhibition of the ligase activity, in words (MshC [2]; 1 and 5 mM, physiologic levels): minimal inhibition
- % inhibition (MshC [2]; [inhibitor] 1000 μM): 4 ± 3%
- % inhibition (MshC [2]; [inhibitor] 5000 μM): 7 ± 5%

SMILES: CN(CCCNC(=O)c1ccc2c(c1)N(Cc1cccc(Cl)c1)C(=O)c1ccccc1[S+]2[O-])C1CCCCC1 (stereo not drawn) [NTF1836]
- IC50 (MshC [1]; 50, 100 and 200 μM in 0.005% Triton X-100, reciprocal plot of velocity versus inhibitor concentration, read-out: IC50): ~100 µM
- IC50 (MshC [1]; read-out: IC50 for MshC activity in an vitro enzyme assay): 100 µM
